Results reported in patent US20020026052A1, “3-cyanoquinolines, 3-cyano-1,6-naphthyridines, and 3-cyano-1,7-naphthyridines as protein kinase inhibitors” (American Home Products Corporation, priority 2000, published 2002).

| melting point | Compound |
| --- | --- |
| 212 to 215 °C | COc1cc(Nc2c(C#N)cnc3cc(-c4ccc(CN5CCN(C)CC5)cn4)ccc23)c(Cl)cc1Cl |
| 181 to 183 °C | COc1cc(Nc2c(C#N)cnc3cc(-c4cccc(CN5CCOCC5)n4)ccc23)c(Cl)cc1Cl |
| 180 to 182 °C | COc1cc(Nc2c(C#N)cnc3cc(-c4cc(CN5CCOCC5)ccn4)ccc23)c(Cl)cc1Cl |
| 141 to 143 °C | COc1cc(Nc2c(C#N)cnc3cc(-c4cncc(CN5CCOCC5)c4)ccc23)c(Cl)cc1Cl |
| 220 to 222 °C | COc1cc(Nc2c(C#N)cnc3cc(-c4ccc(CN5CCOCC5)cn4)ccc23)c(Cl)cc1Cl |
| 195 to 197 °C | COc1cc(Nc2c(C#N)cnc3cc(-c4ccc(CN5CCOCC5)nc4)ccc23)c(Cl)cc1Cl |
| 221 to 223 °C | N#Cc1cnc2cc(-c3csc(CN4CCOCC4)c3)ccc2c1Nc1ccc(Oc2ccccc2)cc1 [Example 7, 7-[5-(4-Morpholinylmethyl)-3-thienyl]-4-(4-phenoxyanilino)-3-quinolinecarbonitrile] |
| 228 to 230 °C | N#Cc1cnc2cc(-c3csc(CN4CCOCC4)c3)ccc2c1Nc1ccc(Cc2ccccc2)cc1 [Example 8, 4-(4-Benzylanilino)-7-[5-(4-morpholinylmethyl)-3-thienyl]-3-quinolinecarbonitrile] |
| 251 to 253 °C | N#Cc1cnc2cc(C#CCO)ccc2c1Nc1ccc(Cl)cc1Cl [Example 14, 4-(2,4-Dichloroanilino)-7-(3-hydroxy-1-propynyl)-3-quinolinecarbonitrile] |
| 270 °C (dec.) | N#Cc1cnc2cc(-c3ccc(-c4ccccn4)s3)ccc2c1Nc1ccc(Cl)cc1Cl [Example 18, 4-(2,4-dichloroanilino)-7-[5-(2-pyridinyl)-2-thienyl]-3-quinolinecarbonitrile] |
| 145 °C | COc1cc(Nc2c(C#N)cnc3cc(-c4ccc(/C=C/CN5CCOCC5)s4)ccc23)c(Cl)cc1Cl [Example 21, 4-(2,4-Dichloro-5-methoxyanilino)-7-{5-[(E)-3-(4-morpholinyl)-1-propenyl]-2-thienyl}-3-quinolinecarbonitrile] |
| 198 to 200 °C | COc1cc(Nc2c(C#N)cnc3cc(-c4ccc(CN5CCOCC5)c(CN5CCOCC5)c4)ccc23)c(Cl)cc1Cl [Example 34, 7-[3,4-bis(4-morpholinylmethyl)phenyl]-4-(2,4-dichloro-5-methoxyanilino)-3-quinolinecarbonitrile] |
| 234 to 236 °C | COc1cc(Nc2c(C#N)cnc3cc(-c4csc(C5OCCO5)c4)ccc23)c(Cl)cc1Cl [Example 42, 4-(2,4-dichloro-5-methoxyanilino)-7-[5-(1,3-dioxolan-2-yl)-3-thienyl]-3-quinoline-carbonitrile] |
| 259 to 262 °C (dec.) | COc1cc(Nc2c(C#N)cnc3cc(-c4csc(C=O)c4)ccc23)c(Cl)cc1Cl [Example 43, 4-(2,4-Dichloro-5-methoxyanilino)-7-(5-formyl-3-thienyl)-3-quinolinecarbonitrile] |
| 286 to 288 °C | N#Cc1cnc2cc(-c3csc(C=O)c3)ccc2c1Nc1ccc(Cl)cc1Cl [Example 44, 4-(2,4-dichloroanilino)-7-(5-formyl-3-thienyl)-3-quinolinecarbonitrile] |
| 233 to 237 °C | COc1cc(Nc2c(C#N)cnc3ccc(-c4csc(C=O)c4)cc23)c(Cl)cc1Cl [Example 45, 4-(2,4-Dichloro-5-methoxyanilino)-6-(5-formyl-3-thienyl)-3-quinolinecarbonitrile] |
| 185 to 187 °C | N#Cc1cnc2cc(-c3cncc(CN4CCOCC4)c3)ccc2c1Nc1ccc(Oc2ccccc2)cc1 [Example 48, 7-[5-(4-Morpholinylmethyl)-3-pyridinyl]-4-(4-phenoxyanilino)-3-quinolinecarbonitrile] |
| 219 to 221 °C | N#Cc1cnc2cc(-c3ccc(CN4CCOCC4)cn3)ccc2c1Nc1ccc(Oc2ccccc2)cc1 [Example 56, 7-[5-(4-Morpholinylmethyl)-2-pyridinyl]-4-(4-phenoxyanilino)-3-quinolinecarbonitrile] |

| melting point | Compound |
| --- | --- |
| 94 to 95 °C | N#Cc1cnc2ccc(-n3cccc3C=O)cc2c1Nc1cccc(Br)c1 [Example 60, 4-(3-Bromoanilino)-6-(2-formyl-1H-pyrrol-1-yl)-3-quinolinecarbonitrile] |
| > 240 °C (dec.) | Cn1ccnc1Sc1ccc(Nc2c(C#N)cnc3cc(-c4ccc(C=O)cc4)ccc23)cc1Cl [Example 62, 4-{3-chloro-4-[(1-methyl-1H-imidazol-2-yl)sulfanyl]anilino}-7-(4-formylphenyl)-3-quinolinecarbonitrile] |
| 148 to 150 °C | Cn1ccnc1Sc1ccc(Nc2c(C#N)cnc3cc(-c4ccc(CN5CCOCC5)cc4)ccc23)cc1Cl [Example 63, 4-{3-chloro-4-[(1-methyl-1H-imidazol-2-yl)sulfanyl]anilino}-7-[4-(4-morpholinylmethyl)phenyl]-3-quinolinecarbonitrile] |
| 194 to 196 °C | Cc1cc(Nc2c(C#N)cnc3cc(-c4csc(C5OCCO5)c4)ccc23)ccc1OCc1ccccn1 [Example 94, 7-[5-(1,3-Dioxolan-2-yl)-3-thienyl]-4-[3-methyl-4-(2-pyridinylmethoxy)anilino]-3-quinolinecarbonitrile] |
| 217 to 219 °C | Cc1cc(Nc2c(C#N)cnc3cc(-c4csc(CN5CCOCC5)c4)ccc23)ccc1OCc1ccccn1 [Example 95, 4-[3-Methyl-4-(2-pyridinylmethoxy)anilino]-7-[5-(4-morpholinylmethyl)-3-thienyl]-3-quinolinecarbonitrile] |
| 186 to 189 °C | COc1cc(Nc2c(C#N)cnc3cc(-c4cnc(C=O)n4C)ccc23)c(Cl)cc1Cl [Example 96, 4-(2,4-Dichloro-5-methoxyanilino)-7-(2-formyl-1-methyl-1H-imidazol-5-yl)-3-quinolinecarbonitrile] |
| 193 to 195 °C | CC(C)N1CCN(Cc2ccc(-c3ccc4c(Nc5ccc(Sc6nccn6C)c(Cl)c5)c(C#N)cnc4c3)cc2)CC1 [Example 98, 4-({3-Chloro-4-[(1-methyl-1H-imidazol-2-yl)sulfanyl]phenyl}amino)-7-{4-[(4-isopropyl-1-piperazinyl)methyl]phenyl}-3-quinolinecarbonitrile] |
| 239 to 240 °C | COc1cc(Nc2c(C#N)cnc3cc(-c4ccc(Cn5ccnn5)cc4)ccc23)c(Cl)cc1Cl [Example 103, 4-[(2,4-Dichloro-5-methoxyphenyl)amino]-7-[4-(1H-1,2,3-triazol-1-ylmethyl)phenyl]-3-quinolinecarbonitrile] |
| 197 to 199 °C | CN(CCO)Cc1ccc(-c2ccc3c(Nc4ccc(Sc5nccn5C)c(Cl)c4)c(C#N)cnc3c2)nc1 [Example 106, 4-({3-Chloro-4-[(1-methyl-IH-irnidazol-2-yl)sulfanyl]phenyl}amino)-7-(5-{[(2-hydroxyethyl) (methyl)amino]methyl}-2-pyridinyl)-3-quinolinecarbonitrile] |
| 135 to 137 °C | COC(=O)C1CCN(Cc2ccc(-c3ccc4c(Nc5ccc(Sc6nccn6C)c(Cl)c5)c(C#N)cnc4c3)nc2)CC1 [Example 107, Methyl 1-{[6-(4-{3-chloro-4-[(1-methyl-1H-imidazol-2-yl)sulfanyl]anilino}-3-cyano-7-quinolinyl)-3-pyridinyl]methyl}-4-piperidinecarboxylate] |
| 246 to 248 °C | CCN1CCN(c2ccc(-c3ccc4c(Nc5ccc(Sc6nccn6C)c(Cl)c5)c(C#N)cnc4c3)nc2)CC1 [Example 108, 4-({3-Chloro-4-[(1-methyl-1H-imidazol-2-yl)sulfanyl]phenyl}amino)-7-[5-(4-ethyl-1-piperazinyl)-2-pyridinyl]-3-quinolinecarbonitrile] |
| 233 to 235 °C | Cn1ccnc1Sc1ccc(Nc2c(C#N)cnc3cc(-c4ccc(CN5CCOCC5)nc4)ccc23)cc1Cl [Example 109, 4-({3-chloro-4-[(1-methylimidazol-2-yl)sulfanyl]phenyl}amino)-7-[6-(4-morpholinylmethyl)-3-pyridinyl]-3-quinolinecarbonitrile] |
| 238 to 240 °C | COc1cc2c(Nc3ccc(Sc4nccn4C)c(Cl)c3)c(C#N)cnc2cc1-c1csc(CN2CCOCC2)c1 [Example 125, 4-{3-chloro-4-[(1-methylimidazol-2-yl)sulfanyl]anilino}-6-methoxy-7-[5-(4-morpholinylmethyl)-3-thienyl]-3-quinolinecarbonitrile] |
| 162 to 164 °C | COc1cc2c(Nc3ccc(Sc4nccn4C)c(Cl)c3)c(C#N)cnc2cc1-c1csc(CN2CCN(C)CC2)c1 [Example 126, 4-{3-chloro-4-[(1-methylimidazol-2-yl)sulfanyl]anilino}-6-methoxy-7-{5-[(4-methyl-1-piperazinyl)methyl]-3-thienyl}-3-quinolinecarbonitrile] |
| 227 to 229 °C | COc1ccc(-c2cc3ncc(C#N)c(Nc4ccc(Sc5nccn5C)c(Cl)c4)c3cc2OC)cc1 [Example 127, 4-{3-Chloro-4-[(I -methyl-iH-imidazol-2-yl)sulfanyl]anilino}-6-methoxy-7-(4-methoxyphenyl)-3-quinolinecarbonitrile] |
| 98 to 101 °C | Cn1ccnc1Sc1ccc(Nc2c(C#N)cnc3cc(-c4ccc(C(=O)N5CCOCC5)cc4)ccc23)cc1Cl [Example 129, 4-({3-Chloro-4-[(i-methyl-IH-imidazol-2-yl)sulfanyl]phenyl}amino)-7-[4-(4-morpholinylcarbonyl)phenyl]-3-quinolinecarbonitrile] |
| 205 to 207 °C | COCCOc1ccc(-c2ccc3c(Nc4cc(OC)c(Cl)cc4Cl)c(C#N)cnc3c2)cc1 [Example 130, 4-(2,4-Dichloro-5-methoxyanilino)-7-{4-[(2-methoxy)ethoxy]phenyl}-3-quinolinecarbonitrile] |
| 230 to 232 °C | Cn1ccnc1Sc1ccc(Nc2c(C#N)cnc3cc(-c4ccc(CN5CCC(O)CC5)cc4)ccc23)cc1Cl [Example 134, 4-{3-Chloro-4-[(1-methyl-LH-imidazol-2-yl)sulfanyl]anilino}-7-{4-[(4-hydroxy-1-piperidinyl)methyl]phenyl}-3-quinolinecarbonitrile] |
